# Assay results from patent US9468604B2, “Pharmaceutical compositions of dispersions of drug and neutral polymers” (Bend Research, Inc., priority 2001, dated 2016).
# How the values were obtained:
# Type in all cases: physicochemical
# [1] = In vitro dissolution test of Drug 5 compositions in MFD solution; parameters: AUC90: concentration or dose not given beside the values; conditions: for AUC / Drug 5 Concentration: Table 27; for AUC / AUC90 / Cmax90: Drug 5, MFD solution; for Drug 5 Concentration: MFD solution; for AUC90 / Cmax90: 0 to 90 min
# Description: (§1) For Control C2, the crystalline form of the drug alone was used without further processing. […] The tubes were placed in a 37° C. temperature-controlled bath, and 1.8 mL phosphate buffered saline (PBS) at pH 6.5 and 290 mOsm/kg was added to each. The samples were quickly mixed using a vortex mixer for about 60 seconds. The samples were centrifuged at 13,000 G at 37° C. for 1 minute. The resulting supernatant solutions were then sampled and diluted 1:6 (by volume) with methanol and then analyzed by high-performance liquid chromatography (HPLC). The contents of the tubes were mixed on the vortex mixer and allowed to stand undisturbed at 37° C. until the next sample was taken. Samples were collected at 4, 10, 20, 40, 90, and 1200 minutes.
# In vitro dissolution tests were performed for Examples 28-29, using the procedure described in Example 4, with the following exceptions: 9 mg each of the dispersions of Examples 28-29 were added to separate respective centrifuge tubes. 1.8 mL of MFD solution was then added to each tube. For comparison, Control C12 was prepared consisting of 0.36 mg of crystalline Drug 5 added to 1.8 mL of MFD solution for a total theoretical concentration of 200 μg/mL if all of the drug dissolved. Drug 5 concentration in the samples was determined using HPLC. A Waters Symmetry C18 HPLC column was used with a mobile phase of 50 vol. % (0.3 vol. % glacial acetic acid, 0.2 vol. % TEA in water) and 50 vol. % acetonitrile. UV detection was measured at 260 nm.
# (§2) In vitro dissolution tests were performed for Examples 35-38, using the procedures described in Example 4, with the following exceptions: 14.4 mg each of Example 35 and 36 were added to separate respective test tubes to which 1.8 mL of PBS solution was added, so that the total theoretical Drug 4 concentration was approximately 200 μg/mL if all of Drug 4 were to dissolve completely; 3.6 mg each of Examples 37 and 38 were added in separate respective test tubes to 1.8 mL of MFD solution, to provide a total theoretical Drug 5 concentration of approximately 20 μg/mL if all of Drug 5 were to dissolve completely. Drug 4 concentration in the samples was determined as in Example 33. Drug 5 concentration in the samples was determined as in Example 34.
# [2] = In vitro dissolution test of Drug 2 compositions in MFD solution; parameters: AUC / AUC90: concentration or dose not given beside the values; conditions: for Drug 2: MFD solution, 37° C.
# Description: as §1
# This example measures' the concentration-enhancing properties of the PVP dispersion of Example 14. Dissolution tests were performed, as described in Example 4 with the following exceptions: the PBS solution contained 7.3 mM sodium taurocholic acid and 1.4 mM 1-palmitoyl-2-oleyl-sn-glycero-3-phosphocholine (model fasted duodenal (MFD) solution). 1.8 mg of dispersion was added to 1.8 mL of test media. For Control C6, 0.18 mg of the crystalline form of the Drug 2 alone was used without further processing and added to 1.8 mL of MFD solution.
# [3] = In vitro dissolution test of Drug 3 compositions in MFD solution; parameters: AUC / AUC90: concentration or dose not given beside the values; conditions: for Drug 3: MFD solution, 37° C.
# Description: as §1
# Dissolution tests were performed, as described in Example 4 with the following exceptions: samples were tested in MFD Solution, and 1.8 mg of dispersion was added to 1.8 mLs of MFD Solution. Control C9 was simply 0.18 mg of the crystalline Drug 3 alone add to 1.8 mL of MFD solution.
# [4] = In vitro dissolution test of Drug 4 compositions in PBS; conditions: for AUC / [Drug 4]: Table 25; for AUC / AUC90 / Cmax90: Drug 4, PBS; for [Drug 4]: PBS; for AUC90 / Cmax90: 0 to 90 min
# Description: as §1
# In vitro dissolution tests were performed for Examples 25-27 using the procedure described in Example 4, with the following exceptions: 14.4 mg each of the dispersions of Examples 25-27 were added to separate, respective centrifuge tubes. 1.8 mL PBS was added to each tube. For comparison, Control C11 was prepared consisting of 3.6 mg of crystalline Drug 4 added to 1.8 mL PBS. Drug 4 concentration in the samples was determined using HPLC. A Zorbax SB C18 HPLC column was used with a mobile phase of 35 vol. % water and 65 vol. % methanol. UV detection was measured at 297 nm.
# as §2
# [5] = Drug 2, MFD solution, 0 to 90 min
# [6] = Drug 3, MFD solution, 0 to 90 min
smiles,measurement,setting,value
"NC(=O)N(O)C1C=C(c2cccc(Oc3ccc(F)cc3)c2)CC1 (single isomer, unassigned; (+)) [Example C12, (+)-N-{3-[3-(4-fluorophenoxy)phenyl]-2-cyclopenten-1-yl}-N-hydroxyurea]",AUC,[1]; time 0 min,0 µg·min/mL
same,AUC,[1]; time 4 min,0 µg·min/mL
same,AUC,[1]; time 10 min,100 µg·min/mL
same,AUC,[1]; time 20 min,300 µg·min/mL
same,AUC,[1]; time 40 min,800 µg·min/mL
same,AUC,[1]; time 90 min,"2,200 min*μg/mL"
same,AUC,[1]; time 1200 min,"43,300 min*μg/mL"
same,Drug 5 Concentration,[1]; time 0 min,0 µg/mL
same,Drug 5 Concentration,[1]; time 4 min,9 µg/mL
same,Drug 5 Concentration,[1]; time 10 min,15 µg/mL
same,Drug 5 Concentration,[1]; time 20 min,21 µg/mL
same,Drug 5 Concentration,[1]; time 40 min,27 µg/mL
same,Drug 5 Concentration,[1]; time 90 min,32 µg/mL
same,Drug 5 Concentration,[1]; time 1200 min,42 µg/mL
same,AUC90,[1]; Table 28,"2,200 min*μg/mL"
same,Cmax90,[1]; Table 28,32 µg/mL
same,Cmax90,[1]; Table 32,32 µg/mL
same,AUC90,"[1]; Table 32, in min·µg/mL","2,200"
"O=C(NC(Cc1ccccc1)C(O)CC(C(=O)NO)C1CCC(F)(F)CC1)c1cnc2ccccc2n1 (stereo not shown) [Example C6, quinoxaline-2-carboxylic acid [1-benzyl-4-(4,4-difluoro-cyclohexyl)-2-hydroxy-4-hydroxycarbamoyl-butyl]-amide]",AUC90,[2]; [5],400 µg·min/mL
same,Cmax90,[2]; [5],7 µg/mL
same,AUC,"[2]; Drug 2, MFD solution, time 0 min",0 min*µg/mL
same,AUC,"[2]; Drug 2, MFD solution, time 4 min",0 min*µg/mL
same,AUC,"[2]; Drug 2, MFD solution, time 10 min",0 min*µg/mL
same,AUC,"[2]; Drug 2, MFD solution, time 20 min",100 min*µg/mL
same,AUC,"[2]; Drug 2, MFD solution, time 40 min",100 min*µg/mL
same,AUC,"[2]; Drug 2, MFD solution, time 90 min",400 min*µg/mL
same,Drug 2,[2]; time 0 min,0 µg/mL
same,Drug 2,[2]; time 4 min,2 µg/mL
same,Drug 2,[2]; time 10 min,4 µg/mL
same,Drug 2,[2]; time 20 min,4 µg/mL
same,Drug 2,[2]; time 40 min,4 µg/mL
same,Drug 2,[2]; time 90 min,7 µg/mL
"O=C(NC(Cc1ccccc1)C(O)CC(C(=O)NO)C1(O)CCC(F)(F)CC1)c1cnc2ccccc2n1 (stereo not shown) [Example C9, quinoxaline-2-carboxylic acid [1-benzyl-4-(4,4-difluoro-1-hydroxy-cyclohexyl)-2-hydroxy-4-hydroxycarbamoyl-butyl]-amide]",AUC90,[3]; [6],900 µg·min/mL
same,Cmax90,[3]; [6],13 µg/mL
same,AUC,"[3]; Drug 3, MFD solution, time 0 min",0 min*µg/mL
same,AUC,"[3]; Drug 3, MFD solution, time 4 min",0 min*µg/mL
same,AUC,"[3]; Drug 3, MFD solution, time 10 min",0 min*µg/mL
same,AUC,"[3]; Drug 3, MFD solution, time 20 min",100 min*µg/mL
same,AUC,"[3]; Drug 3, MFD solution, time 40 min",300 min*µg/mL
same,AUC,"[3]; Drug 3, MFD solution, time 90 min",900 min*µg/mL
same,Drug 3,[3]; time 0 min,0 µg/mL
same,Drug 3,[3]; time 4 min,4 µg/mL
same,Drug 3,[3]; time 10 min,6 µg/mL
same,Drug 3,[3]; time 20 min,8 µg/mL
same,Drug 3,[3]; time 40 min,11 µg/mL
same,Drug 3,[3]; time 90 min,13 µg/mL
"O=C(N[C@@H](Cc1ccccc1)[C@@H](O)C(=O)N1C[C@@H](O)[C@@H](O)C1)c1cc2cc(Cl)ccc2[nH]1 [Example C11, 5-chloro-1H-indole-2-carboxylic acid [(1S)-benzyl-3-((3R,4S)-dihydroxypyrrolidin-1-yl)-(2R)-hydroxy-3-oxypropyl]amide]",AUC,[4]; time 0 min,0 µg·min/mL
same,AUC,[4]; time 4 min,300 µg·min/mL
same,AUC,[4]; time 10 min,"1,000 min*μg/mL"
same,AUC,[4]; time 20 min,"2,200 min*μg/mL"
same,AUC,[4]; time 40 min,"4,500 min*μg/mL"
same,AUC,[4]; time 90 min,"10,300 min*μg/mL"
same,AUC,[4]; time 1200 min,"120,200 min*μg/mL"
same,[Drug 4],[4]; time 0 min,0 µg/mL
same,[Drug 4],[4]; time 4 min,131 µg/mL
same,[Drug 4],[4]; time 10 min,114 µg/mL
same,[Drug 4],[4]; time 20 min,124 µg/mL
same,[Drug 4],[4]; time 40 min,107 µg/mL
same,[Drug 4],[4]; time 90 min,126 µg/mL
same,[Drug 4],[4]; time 1200 min,72 µg/mL
same,AUC90,[4]; Table 26,"10,300 min*μg/mL"
same,Cmax90,[4]; Table 26,131 µg/mL
same,Cmax90,[4]; Table 31,131 µg/mL
same,AUC90,"[4]; Table 31, in min·µg/mL","10,300"
